Read-outs that look alike come from different tables or passages of the source.
Legend:
SF268 (CNS) = test: SRB assay, SF268; assay type: cell-based; details: Homo sapiens; for CC50: read-out: LC50; for IC (TGI): read-out: TGI
Method: (§1) SRB assays were performed according to standard National Cancer Institute Guidelines. Briefly, human tumor cells from different cancer panels were seeded into 96 well plates in 100 μL (plating densities ranging from 5-40,000 cells/well depending on the doubling time of individual cell lines) in serum-containing media for twenty-four hours prior to the addition of the compounds to be assayed. After 24 hours, one plate of each cell line was fixed in situ with trichloroacetic acid (TCA). The fixed slides were used to determine the cell population for each cell line at the time of drug addition (Tz). Each compound to be tested was solubilized in DMSO and the desired concentration was then added to the medium and diluted serially 1:10 to provide a total of five or ten drug concentrations plus control (in a final volume of 200 μL). The starting dose before any dilution was 100 uM for all compounds.
(§2) Following drug addition, each culture was incubated for forty-eight hours. The assay was terminated with the addition of cold TCA. The supernatant was discarded, and the plates were washed with tap water and air dried. Sulforhodamine B (SRB) solution was then added to each well. After staining, the bound stain was solubilized and the absorbance was read on an automated plate reader at a wavelength of 515 nm.
(§3) Using the absorbance measurements [time zero, (Tz), control growth, (C), and test growth in the presence of drug at the ten concentration levels (Ti)], the percentage growth was calculated at each of the drug concentrations levels. Percentage growth inhibition was calculated as:
(§4) [(Ti−Tz)/(C−Tz)]×100 for concentrations for which Ti>/=Tz
(§5) [(Ti−Tz)/Tz]×100 for concentrations for which Ti<Tz.
(§6) Three dose response parameters were calculated for each experimental agent. Growth inhibition of 50% (GI50) was calculated from [(Ti−Tz)/(C−Tz)]×100=50, which was the drug concentration resulting in a 50% reduction in the net protein increase (as measured by SRB staining) in control cells during the drug. The drug concentration resulting in total growth inhibition (TGI) was calculated from Ti=Tz. The LC50 (concentration of drug resulting in a 50% reduction in the measured protein at the end of the drug treatment as compared to that at the beginning) indicating a net loss of cells following treatment was calculated from [(Ti−Tz)/Tz]×100=−50.
(§7) Values were calculated for each of these three parameters when the level of activity was reached; however, if the effect was not reached or was exceeded, the value for that parameter was expressed as greater or less than the maximum or minimum concentration tested.
(§8) Table 4 summarizes results characterizing the effects of compound Nos. 120, 12, 61, 1, and 56 on GI50, which measures the cell growth inhibitory power of the compound, TGI, which measures cytostatic effect (TGI) and LC50, which signifies cytotoxic effect. Each of these parameters in Table 4 was calculated in a sulforhodamine B (SRB) assay, which provides a colorimetric measure of a compound's anti-cancer activity. SRB assays were performed with compounds of the invention in 22 different cell lines (shaded in light gray in Table 4), which represent nine different tumor panels (lung, melanoma, ovary, prostate, CNS, breast, pancreas colon and renal). Ouabain and digoxin were used as controls. Paclitaxel was added as a non-Na^+K^+-ATPase inhibitor control.

CAKJ1 (Renal) = test: SRB assay, CAKJ1; assay type: cell-based, human; details: 48 h; for TGI / GI50: CAKJ1, SRB; for CC50 / GI50: Homo sapiens; for CC50: read-out: LC50
Method: as §1, §2, §3, §4, §5, §6, §7, §8

ERVK (Lung) = test: SRB assay, ERVK; assay type: cell-based, human; details: 48 h
Method: as §1, §2, §3, §4, §5, §6, §7, §8

PCJ (Prostate) = test: SRB assay, PCJ; assay type: cell-based; details: Homo sapiens, 48 h; for CC50: read-out: LC50; for GI50 / IC (TGI): PCJ, SRB
Method: as §1, §2, §3, §4, §5, §6, §7, §8

OVCAR3 (Ovary) = test: SRB assay, OVCAR3; assay type: cell-based, human
Method: as §1, §2, §3, §4, §5, §6, §7, §8

A549 (Lung) = test: SRB assay, A549; assay type: cell-based, human; details: for TGI / GI50: A549, SRB, 48 h; for CC50 / GI50: Homo sapiens; for CC50: A549, 48 h, read-out: LC50
Method: as §1, §2, §3, §4, §5, §6, §7, §8

SKMEL28 (Melanoma) = test: SRB assay, SKMEL28; assay type: cell-based, human; details: for CC50 / GI50: Homo sapiens; for CC50: SK-MEL-28, 48 h, read-out: LC50; for GI50: SK-MEL-28; for GI50 / TGI: SKMEL28, SRB, 48 h
Method: as §1, §2, §3, §4, §5, §6, §7, §8

MB435 (Melanoma) = test: SRB assay, MB435; assay type: cell-based, human; details: 48 h
Method: as §1, §2, §3, §4, §5, §6, §7, §8

ADRRES (Ovary) = test: SRB assay, ADRRES (multidrug resistant NCI-ADR-RES); assay type: cell-based, human; details: 48 h; for TGI / GI50: ADRRES, SRB; for CC50 / GI50: Homo sapiens, NCI/ADR-RES; for CC50: read-out: LC50
Method: NCI-ADR-RES cells have been classified as ovarian cancer cells by the National Cancer Institute.
as §1, §2, §3, §4, §5, §6, §7, §8
Table 4 also presents results with Compound Nos. 120, 12, 61, 1, and 56 in a well characterized drug resistant cell line, NCI-ADR-RES, that expresses high levels of MDR1 and P-glycoprotein.

DU145 (Prostate) = test: SRB assay, DU145; assay type: cell-based, human; details: for TGI / GI50: DU145, SRB, 48 h; for CC50 / GI50: Homo sapiens; for CC50: DU-145, 48 h, read-out: LC50; for GI50: DU-145
Method: as §1, §2, §3, §4, §5, §6, §7, §8

HCT116 (Colon) = test: SRB assay, HCT116; assay type: cell-based; details: Homo sapiens; for CC50: HCT-116, 48 h, read-out: LC50; for GI50 / IC (TGI): HCT-116, HCT116, SRB, 48 h
Method: as §1, §2, §3, §4, §5, §6, §7, §8

OVCAR5 (Ovary) = test: SRB assay, OVCAR5; assay type: cell-based, human
Method: as §1, §2, §3, §4, §5, §6, §7, §8

[1] = target: Na+/K+-ATPase (Adenosine 5′-Triphosphatase isolated from porcine cerebral cortex); test: Na+/K+-ATPase inhibitory activity, colorimetric Adenosine 5'-Triphosphatase Enzymatic Assay; assay type: biochemical; details: read-out: Na+K+ ATPase inhibitory activity IC50
Method: The inhibitory effect of a compound of the invention on ATPase activity was assessed in vitro using the colorimetric Adenosine 5′-Triphosphatase Enzymatic Assay of Sigma (St. Louis, Mo.) according to the manufacturer's instructions. This assay utilizes Adenosine 5′-Triphosphatase isolated from porcine cerebral cortex. Each reaction was performed in a final volume of 250 μl using 0.5 units/ml enzyme in the presence of different inhibitors. […] IC50 values were determined using the Origin® program software (OriginLab, Northampton, Mass.).

| SMILES | CC50 (SF268 (CNS); SF-268, 48 h) | TGI (CAKJ1 (Renal)) | CC50 (CAKJ1 (Renal)) | GI50 (CAKJ1 (Renal)) | CC50 (PCJ (Prostate)) | GI50 (PCJ (Prostate)) | IC (TGI) (PCJ (Prostate)) | TGI (A549 (Lung)) | CC50 (A549 (Lung)) | GI50 (A549 (Lung)) | CC50 (SKMEL28 (Melanoma)) | GI50 (SKMEL28 (Melanoma)) | TGI (SKMEL28 (Melanoma)) | TGI (ADRRES (Ovary)) | CC50 (ADRRES (Ovary)) | GI50 (ADRRES (Ovary)) | TGI (DU145 (Prostate)) | CC50 (DU145 (Prostate)) | GI50 (DU145 (Prostate)) | CC50 (HCT116 (Colon)) | also measured |
| --- | --- | --- | --- | --- | --- | --- | --- | --- | --- | --- | --- | --- | --- | --- | --- | --- | --- | --- | --- | --- | --- |
| C[C@H]1O[C@@H](O[C@H]2[C@@H](O)C[C@H](O[C@H]3[C@@H](O)C[C@H](O[C@H]4CC[C@@]5(C)[C@H](CC[C@@H]6[C@@H]5C[C@@H](O)[C@]5(C)[C@@H](C7=CC(=O)OC7)CC[C@]65O)C4)O[C@@H]3C)O[C@@H]2C)C[C@H](O)[C@@H]1O [Digoxin, reference compound] | 100 nM | 70 nM | 200 nM | < 10 nM | 300 nM | < 80 nM | 100 nM | 60 nM | 1140 nM | < 1 nM | > 100000 nM | 80 nM | 6500 nM | 100 nM | 750 nM | 40 nM | 70 nM | 360 nM | 30 nM | > 50000 nM | GI50 (SF268 (CNS); SF-268, 48 h): < 80 nM; IC (TGI) (SF268 (CNS); SF-268, 48 h): < 80 nM; TGI (ERVK (Lung); ERVK, SRB): 90 nM; CC50 (ERVK (Lung); Homo sapiens, read-out: LC50): 680 nM; GI50 (ERVK (Lung); Homo sapiens, ERVK, SRB): < 10 nM; CC50 (OVCAR3 (Ovary); Homo sapiens, OVCAR-3, 48 h, read-out: LC50): 22200 nM; GI50 (OVCAR3 (Ovary); Homo sapiens, OVCAR-3, OVCAR3, SRB, 48 h): < 10 nM; TGI (OVCAR3 (Ovary); OVCAR3, SRB, 48 h): 2650 nM; CC50 (MB435 (Melanoma); Homo sapiens, read-out: LC50): 7690 nM; GI50 (MB435 (Melanoma); Homo sapiens, MB435, SRB): 70 nM; TGI (MB435 (Melanoma); MB435, SRB): 530 nM; GI50 (HCT116 (Colon)): < 80 nM; IC (TGI) (HCT116 (Colon)): 700 nM; CC50 (OVCAR5 (Ovary); Homo sapiens, OVCAR-5, 48 h, read-out: LC50): 840 nM; GI50 (OVCAR5 (Ovary); Homo sapiens, OVCAR-5, OVCAR5, SRB, 48 h): < 10 nM; TGI (OVCAR5 (Ovary); OVCAR5, SRB, 48 h): 430 nM; IC50 [1]: 204 nM |
| CC(=O)O[C@H]1C(=O)[C@@]2(C)[C@H]([C@H](OC(=O)c3ccccc3)[C@]3(O)C[C@H](OC(=O)[C@H](O)[C@@H](NC(=O)c4ccccc4)c4ccccc4)C(C)=C1C3(C)C)[C@]1(OC(C)=O)CO[C@@H]1C[C@@H]2O [Paclitaxel, reference compound] | > 10000 nM | 4969 nM | 11600 nM | < 1 nM | > 10000 nM | < 100 nM | > 10000 nM | 6138.4 nM | 15300 nM | < 1 nM | > 10000 nM | 2300 nM | >10000 nM | 5803.4 nM | 10600 nM | 1050 nM | 8.6 nM | 143 nM | < 1 nM | > 10000 nM | GI50 (SF268 (CNS); SF-268, SF268, SRB, 48 h, read-out: GI50): < 100 nM; IC (TGI) (SF268 (CNS); SF-268, SF268, SRB, 48 h): 1930 nM; GI50 (HCT116 (Colon)): < 100 nM; IC (TGI) (HCT116 (Colon)): 2240 nM |

Reference: patent US20120238488A1, “COMPOUNDS AND METHODS FOR TREATING NEOPLASIA” (priority 2009, published 2012)
